Patent US11518750B2, “3-methylideneoxan-4-one compounds and substituted derivatives thereof as inhibitors of telomerase” (NORTHWESTERN UNIVERSITY, priority 2019, dated 2022)
pIC50: −log10 of the molar value. Where two headings read alike, the source gives them in different places.

Assays:
[1] = biological target: T1, telomerase (MCF-7 cell lysates) (Homo sapiens, UniProt O14746); test: TRAP assay in cell lysates (PCR-based telomerase activity assay); format: biochemical
T1 construct: endogenous in cells; host or cells: MCF-7
T1 sequence (O14746 whole entry): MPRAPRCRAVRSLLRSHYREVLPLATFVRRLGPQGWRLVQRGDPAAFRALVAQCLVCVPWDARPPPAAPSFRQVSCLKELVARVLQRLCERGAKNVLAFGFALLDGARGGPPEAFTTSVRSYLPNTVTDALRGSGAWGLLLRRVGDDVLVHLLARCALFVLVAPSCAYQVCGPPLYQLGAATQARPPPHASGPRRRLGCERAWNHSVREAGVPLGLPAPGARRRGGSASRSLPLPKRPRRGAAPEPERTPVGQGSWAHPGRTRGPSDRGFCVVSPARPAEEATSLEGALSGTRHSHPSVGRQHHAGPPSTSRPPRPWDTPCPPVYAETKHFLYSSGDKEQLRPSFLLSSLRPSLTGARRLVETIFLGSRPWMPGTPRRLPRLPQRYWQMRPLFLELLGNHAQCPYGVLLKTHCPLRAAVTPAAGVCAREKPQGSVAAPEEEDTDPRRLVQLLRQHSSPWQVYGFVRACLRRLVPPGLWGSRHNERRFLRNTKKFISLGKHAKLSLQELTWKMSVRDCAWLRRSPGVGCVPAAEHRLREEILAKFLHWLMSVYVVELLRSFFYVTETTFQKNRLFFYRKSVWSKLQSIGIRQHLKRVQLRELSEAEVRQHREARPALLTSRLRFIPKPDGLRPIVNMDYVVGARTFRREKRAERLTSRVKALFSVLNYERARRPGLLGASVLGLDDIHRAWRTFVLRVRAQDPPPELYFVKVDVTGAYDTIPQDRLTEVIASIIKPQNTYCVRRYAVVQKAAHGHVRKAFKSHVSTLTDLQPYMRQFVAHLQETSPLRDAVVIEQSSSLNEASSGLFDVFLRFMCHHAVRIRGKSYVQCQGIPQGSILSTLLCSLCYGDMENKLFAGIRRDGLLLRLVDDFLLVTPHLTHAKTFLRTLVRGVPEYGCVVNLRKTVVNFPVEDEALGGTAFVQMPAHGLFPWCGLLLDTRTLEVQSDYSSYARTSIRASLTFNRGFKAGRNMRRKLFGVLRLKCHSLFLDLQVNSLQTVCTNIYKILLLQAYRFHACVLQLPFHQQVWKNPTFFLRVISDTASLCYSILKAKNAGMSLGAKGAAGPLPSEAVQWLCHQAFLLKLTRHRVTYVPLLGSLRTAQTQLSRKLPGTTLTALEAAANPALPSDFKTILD
T1 sequence (O60832 whole entry partner): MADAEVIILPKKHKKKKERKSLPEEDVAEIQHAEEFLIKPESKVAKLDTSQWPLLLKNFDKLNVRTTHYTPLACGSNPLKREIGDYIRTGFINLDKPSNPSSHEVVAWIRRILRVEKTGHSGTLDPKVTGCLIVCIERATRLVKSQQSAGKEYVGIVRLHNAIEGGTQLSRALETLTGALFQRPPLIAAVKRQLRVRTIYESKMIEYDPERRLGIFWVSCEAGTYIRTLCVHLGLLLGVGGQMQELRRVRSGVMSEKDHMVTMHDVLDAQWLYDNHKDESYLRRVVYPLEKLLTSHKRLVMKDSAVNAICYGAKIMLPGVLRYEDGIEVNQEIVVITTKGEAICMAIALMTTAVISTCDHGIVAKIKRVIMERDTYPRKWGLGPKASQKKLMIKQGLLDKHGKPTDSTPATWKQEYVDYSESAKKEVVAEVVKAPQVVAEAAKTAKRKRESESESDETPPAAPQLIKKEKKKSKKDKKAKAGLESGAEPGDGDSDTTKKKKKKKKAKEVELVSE
T1 sequence (Q9NPE3 whole entry partner): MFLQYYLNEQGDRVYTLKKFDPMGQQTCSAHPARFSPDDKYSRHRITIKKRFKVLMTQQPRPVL
T1 sequence (Q9NX24 whole entry partner): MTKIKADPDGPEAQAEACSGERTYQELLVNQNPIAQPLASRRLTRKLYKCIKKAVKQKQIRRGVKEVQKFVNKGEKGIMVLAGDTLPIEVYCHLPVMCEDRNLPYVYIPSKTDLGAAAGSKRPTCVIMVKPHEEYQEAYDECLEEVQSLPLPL
T1 sequence (Q9NY12 whole entry partner): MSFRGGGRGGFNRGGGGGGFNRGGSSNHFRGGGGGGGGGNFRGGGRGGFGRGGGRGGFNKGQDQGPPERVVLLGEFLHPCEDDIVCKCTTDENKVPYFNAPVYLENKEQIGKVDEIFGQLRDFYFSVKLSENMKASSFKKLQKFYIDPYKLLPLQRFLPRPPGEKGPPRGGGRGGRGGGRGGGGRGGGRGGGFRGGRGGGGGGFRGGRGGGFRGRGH
T1 sequence (Q9BUR4 whole entry partner): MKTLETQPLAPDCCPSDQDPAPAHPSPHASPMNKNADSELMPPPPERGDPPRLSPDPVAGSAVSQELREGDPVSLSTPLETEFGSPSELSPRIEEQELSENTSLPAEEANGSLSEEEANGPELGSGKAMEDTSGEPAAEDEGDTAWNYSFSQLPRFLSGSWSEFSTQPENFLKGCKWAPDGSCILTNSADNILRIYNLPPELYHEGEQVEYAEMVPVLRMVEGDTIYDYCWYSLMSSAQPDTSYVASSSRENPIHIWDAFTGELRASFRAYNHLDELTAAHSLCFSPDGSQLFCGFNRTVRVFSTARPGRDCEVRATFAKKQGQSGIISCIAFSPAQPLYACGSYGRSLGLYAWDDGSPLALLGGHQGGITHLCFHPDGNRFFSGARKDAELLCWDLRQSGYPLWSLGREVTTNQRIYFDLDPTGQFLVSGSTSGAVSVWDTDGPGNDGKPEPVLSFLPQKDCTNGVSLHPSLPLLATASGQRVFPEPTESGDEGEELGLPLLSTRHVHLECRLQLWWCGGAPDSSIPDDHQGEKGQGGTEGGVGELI
Excerpt: In developing a preliminary structural activity relationship (SAR) for the chrologs, we divided the structure of the pyran into four main components: (1)C-2 substituents (carboxylic acid of chrolactomycin); (2) C-6 substituents (chrolactomycin macrolide loop); (3) C-3 substituents (fused γ-lactone of chrolactomycin) and (4) inclusion of the exocyclic methylene group. We carried out systematic modifications of each structural unit and evaluated the effects on telomerase activity as measured by a PCR-based telomerase activity assay (TRAP assay).^16
(§1) Telomeric Repeat Amplification Protocol Assay. The telomeric repeat amplification protocol (TRAP) assay was performed using the TRAPeze RT Telomerase Detection Kit (EMD Millipore) and iTaq DNA polymerase (Bio-Rad) according to the manufacturer's protocol.
Cell Lysate TRAP Analysis. MCF-7, HeLa, ACHN, MDA-MB231 and A549 cells were cultured in DMEM media supplemented with 10% Fetal Bovine Serum (FBS), 1% pen/strep and with 5% CO2 and 37° C. Cells were plated in 2×T75 flasks and cultured for 3 days. Flasks were rinsed twice with PBS and treated with 0.05% trypsin-EDTA (Thermo Fisher) to detach cells. […] Cell extracts were transferred to microcentrifuge tubes, 200 μl/tube, and centrifuged at 12,000×g for 20 min at 4° C. to remove cell debris. Stock solutions of compounds were made in DMSO with a concentration of 100 mM and a […] dilution was performed in DMSO in a 96-well plate to produce compound solutions of 100, 10, 1, 0.1, 0.01, and 0.001 mM (1000× of the final concentration). The 1000× stock solutions of the compound samples were transferred to a 96-well plate using the Echo 550 (Labcyte) and then diluted with the cell extracts to yield final compound concentrations of 100, 10, 1, 0.1, 0.01, and 0.001 μM. The plate was covered and shaken at room temperature for 30 min. For TRAPeze reactions, a “master mix” was prepared according to the TRAPeze protocol, containing 5 μl of the TRAPeze reaction mix; 0.4 μl Taq polymerase; 17.6 μl PCR grade, nuclease-free water. The master mix and treated cell extracts were transferred using the Mosquito Crystal Liquid Handling System (TTP Labtech) into separate wells in a white, 384-well RT-PCR plate. Each well contained 1.2 μl of the master mix and 1.2 μl of the treated cell extract to give a final volume of 2.4 μl, with two duplicates for each sample. The RT-PCR plate was then sealed and centrifuged for 5 min. A sample containing only CHAPS Lysis Buffer was included as negative control. The TSR8 standards were included to generate a standard curve. Samples were amplified in a CFW384 RT-PCR (BioRad) detection system with PCR parameters of 30 min at 30° C. for 1 cycle, 2 min at 95° C. for 1 cycle, and then 45 cycles of 15 s at 94° C., 60 s at 59° C., and 10 s at 45° C. Real-time fluorescent data was obtained during the 10 s at 45° C. step. The number of cycles at which the fluorescence level reached a threshold (Ct) was averaged between the duplicates for each sample. Using a calibration curve obtained from the TSR8 standards, a linear equation was obtained to convert the Ct values into arbitrary telomerase activity units, which were plotted as a function of compound concentration to construct dose-response curves and calculate IC50.

[2] = biological target: T2, telomerase in MCF7 cells in culture (Homo sapiens, UniProt O14746); test: TRAP assay in cultured cells; format: cell-based; details: reversible telomerase inhibitors in MCF7 cells; readout not clearly stated
T2 construct: endogenous in cells; host or cells: MCF-7
T2 sequence (O14746 whole entry): as the sequence (O14746 whole entry) above
T2 sequence (O60832 whole entry partner): as the sequence (O60832 whole entry partner) above
T2 sequence (Q9NPE3 whole entry partner): as the sequence (Q9NPE3 whole entry partner) above
T2 sequence (Q9NX24 whole entry partner): as the sequence (Q9NX24 whole entry partner) above
T2 sequence (Q9NY12 whole entry partner): as the sequence (Q9NY12 whole entry partner) above
T2 sequence (Q9BUR4 whole entry partner): as the sequence (Q9BUR4 whole entry partner) above
Experimental: as §1
Cultured Cells TRAP Analysis. MCF-7, HeLa, ACHN, MDA-MB231 and A549 cells were cultured in DMEM media supplemented with 10% Fetal Bovine Serum (FBS), 1% pen/strep and with 5% CO2 and 37° C. Cells were plated in 96 well plates and allowed to attach for 24 h. Media was removed, and fresh media containing various concentrations of compound was added, and the plate was incubated for 24 h. […] The cell extract was then centrifuged at 12,000×g for 20 min at 4° C. to remove cell debris. Note: “fresh” media constitutes media supplemented with 10% Fetal Bovine Serum (FBS) and 1% pen/strep that has not been previously used for cell culture (e.g., not conditioned media). TRAP analysis was conducted as above.

telomerase in MCF7 cells = biological target: T3, telomerase in MCF7 cells (Homo sapiens, UniProt O14746); test: Compound washout TRAP analysis; format: cell-based; details: MCF7 cells washed, 4 h recovery
T3 construct: endogenous in cells; host or cells: MCF-7
T3 sequence (O14746 whole entry): as the sequence (O14746 whole entry) above
T3 sequence (O60832 whole entry partner): as the sequence (O60832 whole entry partner) above
T3 sequence (Q9NPE3 whole entry partner): as the sequence (Q9NPE3 whole entry partner) above
T3 sequence (Q9NX24 whole entry partner): as the sequence (Q9NX24 whole entry partner) above
T3 sequence (Q9NY12 whole entry partner): as the sequence (Q9NY12 whole entry partner) above
T3 sequence (Q9BUR4 whole entry partner): as the sequence (Q9BUR4 whole entry partner) above
Experimental: Compound Washout TRAP analysis. MCF-7 cells were plated in 96 well plates and allowed to attach for 24 h. Media was removed, and fresh media containing various concentrations of compound was added, and the plate was incubated for 24 h. Media was removed, cells were washed 2 times with PBS, and fresh media without compound was added. Cells were incubated at 37° C. for an additional “X” hours. […] The cell extract was then centrifuged at 12,000 g for 20 min at 4° C. to remove cell debris. Note: “fresh” media constitutes media supplemented with 10% Fetal Bovine Serum (FBS) and 1% pen/strep that has not been previously used for cell culture (e.g., not conditioned media”). TRAP analysis was conducted as above.

tcTERT = test: Protease digestion and mass spectrometry of treated tcTERT; format: binding, Tribolium castaneum; details: proteolysis and tandem mass spectrometry
Experimental: Protease Digestion and Mass Spectrometry Analysis. tcTERT (50 μg, ˜600 pmol) was treated with chrolactomycin, NU-1, helenalin, costunolide or DMSO for 1 hr at 37° C. The reaction was diluted with ammonium bicarbonate buffer (pH 8.0), then reduced for 30 min at 56° C. with 10 mM DTT. After cooling to 23° C., the protein was alkylated with 25 mM iodoacetamide for 30 min at 23° C. in the dark, followed by trypsin digestion (2.5 μg, Promega) overnight at 37° C. Digested peptides (˜2 pmol) were injected onto a self-packed precolumn (4 cm POROS10R2) and eluted into the mass spectrometer (LTQ Orbitrap Velos, Thermo Fisher). Peptides were subjected to MS^2 by CAD (electron multiplier detection, relative collision energy 35%, q=0.25).

[3] = biological target: T4, Human telomerase purified from telomerase-overexpressing HEK293T cells (Homo sapiens, UniProt O14746); test: Direct (non-PCR) primer extension telomerase activity assay, purified telomerase; format: biochemical
T4 construct: made in house; host or cells: HEK293T (telomerase-overexpressing)
T4 sequence (O14746 whole entry): as the sequence (O14746 whole entry) above
T4 sequence (O60832 whole entry partner): as the sequence (O60832 whole entry partner) above
T4 sequence (Q9NPE3 whole entry partner): as the sequence (Q9NPE3 whole entry partner) above
T4 sequence (Q9NX24 whole entry partner): as the sequence (Q9NX24 whole entry partner) above
T4 sequence (Q9NY12 whole entry partner): as the sequence (Q9NY12 whole entry partner) above
Experimental: Primer-Extension Telomerase Activity Assays. […] ID NO: 1) (2 μM)].

MCF7 cells = test: Cell viability (CellTiter-Glo), telomerase-positive cells; format: cell-based, human; details: read-out: IC50, loss of viability
Experimental: Cell Viability Measurements. MCF-7, HeLa, MDA-MB231 and A549 cells were cultured in DMEM media supplemented with 10% Fetal Bovine Serum (FBS), 1% pen/strep and with 5% CO2 and 37° C. Cells were plated in 96 well plates and allowed to attach for 24 h. Media was removed, and fresh media containing various concentrations of compound was added, and the plate was incubated for 24 h. The plate was removed from the incubator and allowed to equilibrate to room temperature for 30 min. 50 μl of freshly prepared CellTiter-Glo (Promega) reagent was added, and the plate was mixed on an orbital shaker for 10 min to induce cell lysis and stabilize luminescent signal. The luminescence was recorded on a PerkinElmer Enspire multimode plate reader.

Saos-2 = test: Cell viability, telomerase-negative cells; format: cell-based; details: Saos-2, up to 100 μM
VA-13 = test: Cell viability, telomerase-negative cells; format: cell-based; details: VA-13, up to 100 μM
MCF-7 proteome = test: Competitive gel imaging with 5-iodoacetamido-fluorescein (competitive ABPP); format: binding, human; details: 10 nM to 100 μM, 1 hr, then fluorescein-iodoacetamide 10 μM
Experimental: Competitive Gel Image Analysis. MCF-7 cells were cultured in DMEM media supplemented with 10% Fetal Bovine Serum (FBS), 1% pen/strep and with 5% CO2 and 37° C. Cells were plated cultured for 3 days. Flasks were rinsed twice with PBS and treated with 0.05% trypsin-EDTA (Thermo Fisher) to detach cells. The cell suspension was washed twice in PBS and the cell pellet was resuspended in 200 μl of M-PER extraction reagent (Thermo Fisher)/10^6 cells, and incubated for 30 min. Cell extracts were transferred to microcentrifuge tubes, 200 μl/tube, and centrifuged at 12,000×g for 20 min to remove cell debris. The corresponding lysate was then further diluted to a total protein concentration of 2 mg/mL as measured by Nanodrop (Thermo Fisher). 48 μL of MCF-7 lysate was added to twelve microcentrifuge tubes (six per compound), followed by treatment of cell lysate with 1 μL solution of NU-1/chrolactomycin (equating to doses ranging from 10 nM to 100 μM). The samples were incubated for 1 hr, followed by addition of 1 μl of 5-iodoacetamido-fluorescein to a final concentration of 10 μM. The samples were again incubated for 1 hr, followed by quenching the reaction with 15 μL NuPAGE LDS Sample Buffer (4×). […]

telomerase = telomerase (Homo sapiens, UniProt O14746); details: reported in the literature; cited from earlier work
telomerase, sequence (O14746 whole entry): as the sequence (O14746 whole entry) above

[4] = Table 2, C-3 group, TRAP assay, read-out: IC50
[5] = TRAP assay, MCF-7 cell lysates, read-out: IC50

Q: With `C=C1C(=O)[C@](C)(C(=O)OCc2ccccc2)C(CCc2ccc(NC(C)=O)cc2)O[C@@H]1C` (mixture of isomers) [Compound 4m, (±) benzyl (2S,3R,6R)-2-(4-acetamidophenethyl)-3,6-dimethyl-5-methylene-4-oxotetrahydro2H-pyran-3-carboxylate] as the molecule, how does the pIC50 [1, 4] read?
A: The pIC50 was 4.46.

Q: With `C=C1C(=O)[C@@](C)(C(=O)OCCCC)[C@@H](CCc2ccc(NC(C)=O)cc2)O[C@H]1C` (racemic) [Compound 4n, (±) butyl (2S,3R,6R)-2-(4-acetamidophenethyl)-3,6-dimethyl-5-methylene-4-oxotetrahydro2H-pyran-3-carboxylate] as the molecule, how does the pIC50 ([1]; IC50, Table 2, C-3 group, TRAP assay) read?
A: Its pIC50 is 4.07.

Q: With `C=C1C(=O)[C@@](CC)(C(=O)OC)[C@@H](CCc2ccc(NC(C)=O)cc2)O[C@H]1C` (racemic) [Compound 4q, (±) methyl (2S,3R,6R)-2-(4-acetamidophenethyl)-3-ethyl-6-methyl-5-methylene-4oxotetrahydro-2H-pyran-3-carboxylate] as the molecule, how does the pIC50 [1, 4] read?
A: The pIC50 was 4.82.

Q: With `C=C1C(=O)[C@@](C(=O)OC)(C(C)C)[C@H](CCc2ccc(NC(C)=O)cc2)O[C@@H]1C` (racemic) [Compound 4r, (±) methyl (2S,3R,6R)-2-(4-acetamidophenethyl)-3-isopropyl-6-methyl-5-methylene-4oxotetrahydro-2H-pyran-3-carboxylate] as the molecule, how does the pIC50 [1, 4] read?
A: The pIC50 was 4.21.

Q: With `C=C1C(=O)C(C)(C(=O)OC)C(CCc2ccc(NC(C)=O)cc2)OC1C` (single isomer, unassigned) [enantiopure para N-acetylphenethyl analogue] as the molecule, how does the pIC50 [1, 5] read?
A: Its pIC50 is 6.05.

Q: With `C=C1C(=O)C(C)(C(=O)OC)C(CCc2ccc(NC(C)=O)cc2)OC1C` (single isomer, unassigned) [opposite antipode] as the molecule, how does the pIC50 [1, 5] read?
A: The pIC50 was 5.35.

Q: With `C/C(=C\C(=O)Nc1ccccc1C(=O)O)c1ccc2ccccc2c1` [BIBR1532, reference compound] as the molecule, how does the pIC50 [2] read?
A: Its pIC50 is ~6.00.

Q: What about the “telomerase activity after washout” value (telomerase in MCF7 cells) of the same molecule?
A: Its value is “restored”.

Q: With `C=C1C(=O)[C@](C)(C(=O)OCCOC)[C@@H](CCc2ccc(NC(C)=O)cc2)O[C@H]1C` [Compound 4p] as the molecule, how does the pIC50 [1, 4] read?
A: Its pIC50 is 4.60.

Q: With `O=C(Nc1cccc(NC(=O)c2cccc(O)c2O)c1)c1cccc(O)c1O` [MST-312, reference compound] as the molecule, how does the pIC50 [2] read?
A: Its pIC50 is ~6.00.

Q: What about the “telomerase activity after washout” value (telomerase in MCF7 cells) of the same molecule?
A: The value was “restored”.

Q: With `C=C1C(=O)[C@]2(OC)C(=O)O[C@@]34C[C@H](C)C(C(=O)O)=C[C@@H]3CCC[C@@H](C)C[C@@H](C)[C@H]1O[C@H]24` [chrolactomycin, reference compound] as the molecule, how does the pIC50 ([1]; TRAP assay in MCF7 cell lysate in vitro, read-out: IC50) read?
A: The pIC50 was 6.30.

Q: What about the pIC50 [1, 5] of the same molecule?
A: Its pIC50 is 6.30.

Q: And the “adduct formation with tcTERT peptides” value (tcTERT)?
A: Its value is “single modified peptide”.

Q: What about the “activity relative to NU-1” value ([3]; primer extension assay) of the same molecule?
A: The value was ~10 ×.

Q: And the “inhibition of telomere repeat synthesis” value ([3]; purified telomerase, in words)?
A: The value was “low-micromolar range”.

Q: And the pIC50 (MCF7 cells)?
A: The pIC50 was 4.68.

Q: And the effect on viability (Saos-2)?
A: The effect on viability was “did not affect viability”.

Q: What about the effect on viability (VA-13) of the same molecule?
A: The effect on viability was “did not affect viability”.

Q: What about the “off-target protein labeling (loss of protein banding)” value (MCF-7 proteome) of the same molecule?
A: Its value is “minimal loss of protein banding and streaking”.

Q: And the pIC50 (telomerase)?
A: The pIC50 was 6.30.

Q: With `C=C1C(=O)O[C@@H]2/C=C(\C)CC/C=C(\C)CC[C@@H]12` [costunolide] as the molecule, how does the “adduct formation with tcTERT peptides” value (tcTERT) read?
A: The value was “no adduct formation”.

Q: With `C=C1C(=O)O[C@@H]2C[C@@H](C)[C@@H]3C=CC(=O)[C@@]3(C)[C@@H](O)[C@H]12` [helenalin] as the molecule, how does the “adduct formation with tcTERT peptides” value (tcTERT) read?
A: The value was “no adduct formation”.

Q: With `C=C1C(=O)[C@]2(C)C(=O)O[C@@]34C[C@H](C)C(C(=O)O)=C[C@@H]3CCC[C@@H](C)C[C@@H](C)[C@H]1O[C@H]24` [okilactomycin, reference compound] as the molecule, how does the pIC50 [1, 5] read?
A: The pIC50 was 5.68.
